Laboratory results from patent publication US5959178A, “Modification of lignin synthesis in plants” (Imperial Chemical Industries PLC, priority 1991, dated 1999).

Molecular target: T1, purified poplar OMT (Populus trichocarpa x Populus deltoides, UniProt Q9LWB8)
T1 construct: closely related isoforms co-purify
Assay: Specific activity of the purified poplar OMT towards O-diphenolic substrates
Format: biochemical
Protocol: The specific activity of the purified OMT towards three different O-diphenolic substrates was measured. Using catechol, caffeic acid, and hydroxyferulic acid as substrate, we found an OMT activity of 0, 30, and 15 nkat/mg protein, respectively.

T1 sequence (Q9LWB8 entry or part of it T91I): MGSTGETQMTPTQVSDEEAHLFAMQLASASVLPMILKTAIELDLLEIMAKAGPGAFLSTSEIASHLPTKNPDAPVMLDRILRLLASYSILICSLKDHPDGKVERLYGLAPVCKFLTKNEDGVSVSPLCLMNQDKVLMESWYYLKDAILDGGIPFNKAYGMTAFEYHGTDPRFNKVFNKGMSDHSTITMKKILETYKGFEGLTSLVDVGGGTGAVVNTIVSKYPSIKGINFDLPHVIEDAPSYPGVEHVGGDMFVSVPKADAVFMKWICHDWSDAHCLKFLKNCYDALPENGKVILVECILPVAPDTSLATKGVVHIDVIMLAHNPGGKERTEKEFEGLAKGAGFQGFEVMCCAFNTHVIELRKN

| Compound | OMT activity (specific activity) with compound as substrate [nkat/mg protein] |
| --- | --- |
| O=C(O)/C=C/c1ccc(O)c(O)c1 [caffeic acid] | 30 |
| Oc1ccccc1O [catechol] | 0 |
